Earlier results, collected in patent US20230248696A1, “LENALIDOMIDE PRODRUGS, POLYMERIC CONJUGATES, AND FORMULATIONS THEREOF, AND THEIR USES FOR THE TREATMENT OF MULTIPLE MYELOMA” (DYNAMIC BIOLOGICS INC., priority 2019, published 2023).

Legend:
[1] = high solubility and low permeability
[2] = test system: TNF-α, IL-1β, IL-6 and IL-12
KG-1 cells = conditions: cell line without chromosome 5 deletions
[3] = test system: IL-10, IL-2 and Interferon gamma (IFN-γ); conditions: peripheral blood mononuclear cells
[4] = not given; remark: listed apart in the source
[5] = in vitro, versus racemic lenalidomide
IL-2 = conditions: in vitro, versus racemic lenalidomide
TNF-alpha = conditions: in vitro, versus racemic lenalidomide

| patients with dyspepsia (multiple myeloma patients treated with lenalidomide) [%] | BCS class [1] | inhibition of COX-2 expression (cyclooxygenase-2 (COX-2)) | reduction of maximal plasma concentration (Cmax) by co-administration with food ([4]; co-administration with food) [%] | oral lenalidomide dose absorbed ([4]; oral, fasting conditions) [%] | reduction of area under the concentration-time curve (AUC) by food ([4]; oral, with food) [%] | reduction of maximum concentration (Cmax) by food ([4]; oral, with food) [%] | SMILES | patients discontinuing maintenance therapy because of neurotoxicity (maintenance therapy) [%] | inhibition of COX-1 expression (COX-1) | inhibition of pro-inflammatory cytokines TNF-α, IL-1β, IL-6 and IL-12 [2] | inhibiting growth of KG-1 cells (KG-1 cells) | production of IL-10, IL-2 and IFN-γ [3] | inhibiting growth of Namalwa cells (Namalwa cells) | potency for anti-proliferative activities [5] | potency for IL-2 induction (increased production) (IL-2) | potency for TNF-alpha inhibition (TNF-alpha) |
| --- | --- | --- | --- | --- | --- | --- | --- | --- | --- | --- | --- | --- | --- | --- | --- | --- |
| 20 | 3 | inhibits | 36 | > 90 | 20 | 50 | Nc1cccc2c1CN(C1CCC(=O)NC1=O)C2=O (racemic) [lenalidomide, 3-(4′ aminoisoindoline-1′-one)-1-piperidine-2,6-dione] | 75 | not | potent inhibitor | much less effective | increases production | effective |  |  |  |
|  |  |  |  |  |  |  | [2H]C1([2H])C(=O)NC(=O)[C@@]([2H])(N2Cc3c(N)cccc3C2=O)C1([2H])[2H] [CTP-221] |  |  |  |  |  |  | greater potency compared to racemic lenalidomide | greater potency compared to racemic lenalidomide | greater potency compared to racemic lenalidomide |
